The experiment has as its system influenza virus A/Taiwan/1/86 (H1N1). Briefly: organism not typed. In kind it is cell-based. The note with it: 72 h, MDCK cells infected by influenza A/Taiwan/1/86 (H1N1), three days post-virus exposure, ATP levels.
The mark [1] stands for this setting: read-out: FLU-AVE-MDCK-ATP-TW_EC50.
[2] abbreviates: read-out: FLU-AVE-MDCK-ATP-TW_pEC50 (converted).

Read-outs that look alike come from different tables or passages of the source.

As for `CC(C)(c1ccccn1)C(CC(=O)O)Nc1nc(-c2c[nH]c3ncc(Cl)cc23)c(C#N)cc1F` (stereo not drawn), under setting [1], the EC50 came out at 0.47 nM.

Regarding `CC(C)(c1ccccn1)C(CC(=O)O)Nc1nc(-c2c[nH]c3ncncc23)ncc1F` (stereo not drawn), the EC50 under setting [1] worked out at 1890 nM. Take `CC(C)(c1ccccn1)[C@@H](CC(=O)O)Nc1nc(-c2c[nH]c3ncc(Cl)cc23)c(C#N)cc1F` (single isomer, unassigned): the EC50 runs as follows: under setting [1], 5.4 nM; under setting [2], 5.01 nM. Turning to `CC1(C(CC(=O)O)Nc2nc(-c3c[nH]c4ncc(Cl)cc34)ncc2F)COC1` (stereo not drawn), the EC50 under setting [1] worked out at 982 nM and the EC50 under setting [2] is 1000 nM.

On to `Cn1ccc(C(C)(C)C(CC(=O)O)Nc2nc(-c3c[nH]c4ncc(Cl)cc34)c(C#N)cc2F)n1` (stereo not drawn), for which the EC50 by setting is: under setting [1], 2.56 nM; under setting [2], 2.51 nM.

As to `CC(C)(c1cccs1)C(CC(=O)O)Nc1nc(-c2c[nH]c3ncc(Cl)cc23)c(C#N)cc1F` (stereo not drawn), the EC50 runs as follows: under setting [1], 0.57 nM; under setting [2], 0.631 nM. For `CC(C)(c1ccccn1)[C@H](CC(=O)O)Nc1nc(-c2c[nH]c3ncc(Cl)cc23)c(C#N)cc1F` (single isomer, unassigned), the EC50 is 0.075 nM under setting [1] and 0.00631 nM under setting [2]. Regarding `C=CCC(C)(C)C(CC(=O)O)Nc1nc(-c2c[nH]c3ncc(Cl)cc23)c(C#N)cc1F` (stereo not drawn), the EC50 is, setting by setting: under setting [1], 1 nM; under setting [2], 1 nM. Consider `CC(C)(c1cccs1)C(CC(=O)O)Nc1nc(-c2c[nH]c3ncc(Cl)cc23)ncc1F` (stereo not drawn), for which the EC50 runs as follows: under setting [1], 2.54 nM; under setting [2], 2.51 nM. On the same counts, the results for `CC(C)(c1nccs1)C(CC(=O)O)Nc1nc(-c2c[nH]c3ncc(Cl)cc23)c(C#N)cc1F` (stereo not drawn) are 0.267 nM and 0.251 nM.
